Test results: paper PMC4072508, “Genome-Wide Prediction and Validation of Peptides That Bind Human Prosurvival Bcl-2 Proteins” (PLoS Computational Biology, 2014)
Like-named read-outs stand apart in the source and are kept apart here. No end group written: not given here.

Legend:
Test in all cases: Fluorescence polarization direct binding
[1] = biological target: T1, Mcl-1 (Homo sapiens, UniProt Q07820)
T1 construct: myc-Mcl-1 SPOT array & FP; made in house
Description: (§1) Peptides were purified by reverse-phase HPLC using a C18 column and a linear water/acetonitrile gradient. We re-analyzed the purified peptide by mass spectrometry if there was not a single well-defined peak in HPLC chromatogram.
(§2) Fluorescence polarization (FP) assays were done at 25°C in assay buffer (20 mM NaPO4, 50 mM NaCl, 1 mM EDTA, 0.001% Triton X (v/v), pH 7.8). […] For all FP experiments, the total well volume was 120 µl. […] Anisotropy was measured using a Spectramax M5 plate reader from Molecular Devices.
(§3) Direct binding curves were fit using Pylab/Scipy/Optimize to a single-site binding model utilized previously.
(§4) ^1Best-fit KD values determined by combining all replicate titration curves and fitting to a direct binding model (see Methods). […] Values with an X followed by a number indicate the highest concentration (the number, in nM) for which signal was measured yet no binding was detected.

[2] = biological target: T2, Bcl-2 (Homo sapiens, UniProt P10415, DEL53-91)
T2 construct: myc- Bcl-2 FP; made in house
T2 sequence (P10415 with tags, fused parts or gaps DEL53-91): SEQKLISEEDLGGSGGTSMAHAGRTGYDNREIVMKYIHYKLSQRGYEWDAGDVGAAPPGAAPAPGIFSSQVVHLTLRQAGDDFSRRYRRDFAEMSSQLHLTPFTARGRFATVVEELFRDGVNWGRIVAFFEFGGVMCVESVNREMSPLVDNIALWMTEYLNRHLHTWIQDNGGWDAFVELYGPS
Description: as §1, §2, §3, §4

[3] = biological target: T3, Bcl-xL (Homo sapiens, UniProt Q07817)
T3 construct: myc-Bcl-xL SPOT array & FP; made in house
T3 sequence (Q07817 with tags, fused parts or gaps): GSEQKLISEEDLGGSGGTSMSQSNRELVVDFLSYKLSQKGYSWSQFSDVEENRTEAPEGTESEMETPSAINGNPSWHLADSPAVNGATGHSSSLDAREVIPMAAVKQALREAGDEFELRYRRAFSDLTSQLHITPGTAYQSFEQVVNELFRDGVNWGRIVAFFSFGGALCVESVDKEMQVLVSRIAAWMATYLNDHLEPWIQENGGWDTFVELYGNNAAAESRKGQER
Description: as §1, §2, §3, §4

[4] = biological target: T4, Bcl-w (Homo sapiens, UniProt Q92843, Q133R)
T4 construct: myc-Bcl-w SPOT array & FP; made in house
T4 sequence (Q92843 with tags, fused parts or gaps Q133R): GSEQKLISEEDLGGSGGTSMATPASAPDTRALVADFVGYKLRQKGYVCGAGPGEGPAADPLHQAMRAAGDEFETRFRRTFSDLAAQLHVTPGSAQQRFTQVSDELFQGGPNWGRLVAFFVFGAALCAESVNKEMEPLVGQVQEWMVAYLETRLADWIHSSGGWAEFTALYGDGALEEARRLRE
Description: as §1, §2, §3, §4

[5] = biological target: T5, Bfl-1 (Homo sapiens, UniProt Q16548)
T5 construct: myc- Bfl-1 SPOT array & FP; made in house
T5 sequence (Q16548 with tags, fused parts or gaps): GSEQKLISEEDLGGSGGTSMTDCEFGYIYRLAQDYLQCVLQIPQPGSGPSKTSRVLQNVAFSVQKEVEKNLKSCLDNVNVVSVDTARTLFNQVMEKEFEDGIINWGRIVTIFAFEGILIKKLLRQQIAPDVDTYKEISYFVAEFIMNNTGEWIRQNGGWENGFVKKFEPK
Description: as §1, §2, §3, §4

[6] = Binder class, Mcl-1, benchmark classification of peptides newly characterized in this study
[7] = FP direct binding, 10 nM FAM-labeled peptide, receptor titrated, 25°C, pH 7.8, fit of all replicate titrations, X+number in a cell = highest concentration (nM) measured with no binding detected, given here as >, SPNS1 fit to raw fluorescence
[8] = FP direct binding, 10 nM FAM-labeled peptide, receptor titrated, 25°C, pH 7.8, fit of all replicate titrations, X+number in a cell = highest concentration (nM) measured with no binding detected, given here as >, SPNS1 fit to raw fluorescence, read-out: Best-fit KD, Bcl-2
[9] = benchmark classification of peptides newly characterized in this study, read-out: Binder class, Bcl-2
[10] = FP direct binding, 10 nM FAM-labeled peptide, receptor titrated, 25°C, pH 7.8, fit of all replicate titrations, X+number in a cell = highest concentration (nM) measured with no binding detected, given here as >, SPNS1 fit to raw fluorescence, read-out: Best-fit KD, Bcl-xL
[11] = benchmark classification of peptides newly characterized in this study, read-out: Binder class, Bcl-xL
[12] = FP direct binding, 10 nM FAM-labeled peptide, receptor titrated, 25°C, pH 7.8, fit of all replicate titrations, X+number in a cell = highest concentration (nM) measured with no binding detected, given here as >, SPNS1 fit to raw fluorescence, read-out: Best-fit KD, Bcl-w
[13] = benchmark classification of peptides newly characterized in this study, read-out: Binder class, Bcl-w
[14] = FP direct binding, 10 nM FAM-labeled peptide, receptor titrated, 25°C, pH 7.8, fit of all replicate titrations, X+number in a cell = highest concentration (nM) measured with no binding detected, given here as >, SPNS1 fit to raw fluorescence, read-out: Best-fit KD, Bfl-1
[15] = benchmark classification of peptides newly characterized in this study, read-out: Binder class, Bfl-1

T1 sequence (Q07820 with tags, fused parts or gaps): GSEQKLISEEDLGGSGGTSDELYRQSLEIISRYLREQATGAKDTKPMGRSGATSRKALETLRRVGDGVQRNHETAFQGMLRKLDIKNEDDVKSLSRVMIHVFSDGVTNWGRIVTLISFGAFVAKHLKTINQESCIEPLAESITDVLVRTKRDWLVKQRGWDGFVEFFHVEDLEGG

Row | Substance | Kd [1, 6] | Kd [1, 7] | Kd [2, 8] | Kd [2, 9] | Kd [3, 10] | Kd [3, 11] | Kd [4, 12] | Kd [4, 13] | Kd [5, 14] | Kd [5, 15] | other results
1 | LRLFLAQRLRWLADSAPASRATA-NH2 [NBEAL2] | 1000 to 10000 nM | 3810 nM | 16 nM | < 1000 nM | 10 nM | < 1000 nM | 29 nM | < 1000 nM | 3270 nM | 1000 to 10000 nM | Best-fit KD, Bcl-2 [2, 7]: bound tightly; Best-fit KD, Bcl-xL [3, 7]: bound tightly; Best-fit KD, Bcl-w [4, 7]: bound tightly
2 | LSDGLPVHLANIADELTQKKKMF-NH2 [AGBL2] | > 10000 nM | > 5030 nM | > 100000 nM | 1000 to 10000 nM | > 4000 nM | > 10000 nM | 5870 nM | 1000 to 10000 nM | > 4670 nM | > 10000 nM | –
3 | PILENPEILRKTADDFLNRIALT-NH2 [CCH] | > 10000 nM | > 4000 nM | 7130 nM | 1000 to 10000 nM | > 5720 nM | > 10000 nM | 1920 nM | 1000 to 10000 nM | > 9610 nM | > 10000 nM | –
4 | QRKHEGFERDLAALGDKVNSLGETAE-NH2 [SPTAN1] | > 10000 nM | 3850 nM | > 3050 nM | 1000 to 10000 nM | > 7000 nM | > 10000 nM | > 4350 nM | > 10000 nM | > 3370 nM | > 10000 nM | –
5 | RLVQQSKALKELADELQERAQRP-NH2 [TRIM58] | > 10000 nM | – | – | – | – | – | – | – | – | – | Kd [1]: > 6070 nM; Kd [2]: 975 nM; Kd ([2]; Binder class, Bcl-2, benchmark classification of peptides newly characterized in this study): < 1000 nM; Kd [3]: 4550 nM; Kd ([3]; Binder class, Bcl-xL, benchmark classification of peptides newly characterized in this study): 1000 to 10000 nM; Kd [4]: 361 nM; Kd ([4]; Binder class, Bcl-w, benchmark classification of peptides newly characterized in this study): > 10000 nM; Kd [5]: > 4670 nM; Kd ([5]; Binder class, Bfl-1, benchmark classification of peptides newly characterized in this study): > 10000 nM
6 | RSMVFARHLREVGDEFRSRHLNS-NH2 [POFUT2] | > 10000 nM | > 10000 nM | 98 nM | < 1000 nM | 39 nM | < 1000 nM | 98 nM | < 1000 nM | > 2280 nM | > 10000 nM | Best-fit KD, Bcl-2 [2, 7]: bound tightly; Best-fit KD, Bcl-xL [3, 7]: bound tightly; Best-fit KD, Bcl-w [4, 7]: bound tightly
7 | RVEQMAIQIKEVGDRVNYIKRSL-NH2 [TRPM7] | > 10000 nM | 592 nM | 124 nM | < 1000 nM | 679 nM | < 1000 nM | 2490 nM | < 1000 nM | 1900 nM | 1000 to 10000 nM | –
8 | RYRHGAPAEQLRHLADMLTTKWATLQ-NH2 [PLEKHH1] | > 10000 nM | 977 nM | 1500 nM | < 1000 nM | 650 nM | < 1000 nM | 1400 nM | > 10000 nM | > 5680 nM | > 10000 nM | –
9 | SKFVILSAHKLVFIGDTLSRQAKAAD-NH2 [BCAR1] | > 10000 nM | 912 nM | 2990 nM | 1000 to 10000 nM | 2540 nM | 1000 to 10000 nM | 3610 nM | < 1000 nM | 4680 nM | 1000 to 10000 nM | –
10 | SYMVLAPVFGYLGDRYNRKYLMA-NH2 [SPNS1] | < 1000 nM | 19 nM | 28 nM | < 1000 nM | 96 nM | < 1000 nM | 871 nM | < 1000 nM | 278 nM | < 1000 nM | –
11 | THEEVVHLLRNAGDEVTITVEYL-NH2 [SNTG2] | < 1000 nM | 22 nM | > 3050 nM | > 10000 nM | > 4000 nM | > 10000 nM | > 6560 nM | > 10000 nM | > 4070 nM | > 10000 nM | Best-fit KD, Mcl-1 [1, 7]: bound tightly
